Source: ChEMBL document CHEMBL1687855, “Nardosinane sesquiterpenoids from the Formosan soft coral Lemnalia flava” (2011)
Calls of active or inactive are those of the source. No cut-off for these calls is given here.

What was measured:
[1] = test system: SH-SY5Y; assay: Neuroprotective activity against 1 hr compound pretreated human SH-SY5Y cells assessed as reduction in 6-OHDA induced damage at 1 uM by MTT assay; type: functional; set-up: scale not given: the % may be the effect or the level left
[2] = test system: WiDr; assay: Cytotoxicity against human WiDr cells; type: functional, cell-based
[3] = test system: P388D1; assay: Cytotoxicity against […] cells; type: functional, cell-based; details: Mus musculus
[4] = test system: SH-SY5Y; assay: Neuroprotective activity against 1 hr compound pretreated human SH-SY5Y cells assessed as reduction in 6-OHDA induced damage at 10^-3 uM by MTT assay; type: functional; set-up: scale not given: the % may be the effect or the level left
[5] = test system: HL-60; assay: Cytotoxicity against human HL60 cells; type: functional, cell-based
[6] = test system: MCF7; assay: Cytotoxicity against human MCF7 cells; type: functional, cell-based
[7] = test system: HEp-2; assay: Cytotoxicity against human Hep2 cells; type: functional, cell-based
[8] = test system: DLD-1; assay: Cytotoxicity against human DLD1 cells; type: functional, cell-based
[9] = test system: SH-SY5Y; assay: Neuroprotective activity against 1 hr compound pretreated human SH-SY5Y cells assessed as reduction in 6-OHDA induced damage at 10^-1 uM by MTT assay; type: functional; set-up: scale not given: the % may be the effect or the level left
[10] = test system: CCRF-CEM; assay: Cytotoxicity against human CCRF-CEM cells; type: functional, cell-based
[11] = test system: SH-SY5Y; assay: Neuroprotective activity against 1 hr compound pretreated human SH-SY5Y cells assessed as reduction in 6-OHDA induced damage at 10^-4 uM by MTT assay; type: functional; set-up: scale not given: the % may be the effect or the level left
[12] = test system: Daoy; assay: Cytotoxicity against human DaOY cells; type: functional, cell-based
[13] = test system: SH-SY5Y; assay: Neuroprotective activity against 1 hr compound pretreated human SH-SY5Y cells assessed as reduction in 6-OHDA induced damage at 10^-2 uM by MTT assay; type: functional; set-up: scale not given: the % may be the effect or the level left
[14] = test system: SH-SY5Y; assay: Neuroprotective activity against 1 hr compound pretreated human SH-SY5Y cells assessed as reduction in 6-OHDA induced damage at 10 uM by MTT assay; type: functional; set-up: scale not given: the % may be the effect or the level left
[15] = test system: SH-SY5Y; assay: Neuroprotective activity against 1 hr compound pretreated human SH-SY5Y cells assessed as reduction in 6-OHDA induced damage at 10 '-4 to 10 uM by MTT assay; type: functional; set-up: scale not given: the % may be the effect or the level left
[16] = test system: RAW264.7; assay: Antiinflammatory activity in mouse RAW264.7 cells assessed as inhibition of LPS-induced up-regulation of pro-inflammatory protein iNOS by Western blot analysis; type: functional
[17] = test system: RAW264.7; assay: Antiinflammatory activity in mouse RAW264.7 cells assessed as inhibition of LPS-induced up-regulation of pro-inflammatory protein COX-2 by Western blot analysis; type: functional
[18] = read-out: ED50 (the source's name)

With `C[C@@H]1[C@@H](O)O[C@@]23C=CC[C@H](C)[C@@]2(C)[C@H]1C(=O)CC3` [FLAVALIN B] the Activity [1] was 21.3%, the Activity [2] was “inactive” and the Activity [3] was “inactive”. For the same compound, the Activity [4] was 32.6%, the Activity [5] was “inactive” and the Activity [6] was “inactive”. The Activity [7] was “inactive”, the Activity [8] was “inactive” and the Activity [9] was 24.3%. For the same compound, the Activity [10] was “inactive”, the Activity [11] was 29.6% and the Activity [12] was “inactive”. It also gave an Activity [13] of 30.2% and an Activity [14] of 30.1%.

For `CO[C@H]1O[C@@]23C=CC[C@H](C)[C@@]2(C)[C@@H](C(=O)CC3)[C@@H]1C` [FLAVALIN C], the Activity [2] was “inactive”, the Activity [3] was “inactive” and the Activity [5] was “inactive”. For the same compound, the Activity [6] was “inactive”, the Activity [7] was “inactive” and the Activity [8] was “inactive”. The Activity [10] was “inactive”, the Activity [15] was <20% and the Activity [12] was “inactive”.

With `C[C@@H]1[C@@H]2O[C@H]3CC[C@@]4(C=CC[C@H](C)[C@@]4(C)[C@H]13)O2` [FLAVALIN A] the Activity [1] was 35.1%, the Activity [2] was “inactive” and the Activity [3] was “inactive”. The Activity [4] was 5.84%, the Activity [5] was “inactive” and the Activity [16] was “Dose-dependent effect”. For the same compound, the EC50 [16, 18] was 20.5 µM, the Activity [6] was “inactive” and the Activity [7] was “inactive”. The Activity [8] was “inactive”, the Activity [9] was 25.3% and the Activity [17] was “Dose-dependent effect”. The EC50 [17, 18] was 26.5 µM, the Activity [10] was “inactive” and the Activity [11] was 16.9%. For the same compound, the Activity [12] was “inactive”, the Activity [13] was 30.8% and the Activity [14] was 20.9%.

In the case of `CO[C@@H]1O[C@@]23C=CC[C@H](C)[C@@]2(C)[C@@H](C(=O)CC3)[C@@H]1C` [FLAVALIN D], the Activity [2] is reported as “inactive”, the Activity [3] is reported as “inactive” and the Activity [5] is reported as “inactive”. For the same compound, the Activity [6] was “inactive”, the Activity [7] was “inactive” and the Activity [8] was “inactive”. The Activity [10] was “inactive”, the Activity [15] was <20% and the Activity [12] was “inactive”.
